≈ marks a conversion by molar mass, not a printed value.
Assay: Solubility in PBS
Type: physicochemical
Details: not given
Outline: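 HPLC quantitation of peptide remaining in the PBS supernatant after ultracentrifugation, referenced to a 50 μM solution in DMSO.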
In the case of `CC(=O)N1CCC[C@]12CC=CCCCC1(CCCC=CCCCOC(=O)N3CC[C@@](C(=O)N[C@@H](Cc4ccccc4Cl)C(=O)N[C@@H](Cc4csc5ccccc45)C(=O)N[C@H](CO)[C@@H](C)O)(C3)NC(=O)[C@H](Cc3ccccc3)NC(=O)[C@H](Cc3ccccc3)NC(=O)[C@H](C)NC(=O)[C@H](C)NC(=O)[C@H](Cc3cccc(C(=O)O)c3)NC(=O)[C@H](CC(=O)O)NC1=O)NC(=O)[C@H](CC(C)(C)C)NC(=O)[C@H](CC(=O)O)NC2=O` (stereo partly drawn) [I-1340, PL3-Asp-Npg-B5-Asp-3COOHF-Ala-Ala-Phe-Phe-PyrS2-2C1F-BztA-Thro1], the “Solubility” value is reported as 10 µM (≈ 20.2 µg/mL).
With `CC(=O)N1CCC[C@]12CC=CCCCC1(CCCC=CCCCOC(=O)N3CC[C@@](C(=O)N[C@H](Cc4ccccc4)C(=O)N[C@@H](Cc4csc5ccccc45)C(=O)N[C@@H](CCC(N)=O)C(N)=O)(C3)NC(=O)[C@H](CC(N)=O)NC(=O)[C@H](Cc3ccccc3)NC(=O)[C@H](C)NC(=O)[C@H](C)NC(=O)[C@H](CC(=O)O)NC(=O)[C@H](CC(=O)O)NC1=O)NC(=O)[C@H](CC(C)(C)C)NC(=O)[C@H](CC(=O)O)NC2=O` (stereo partly drawn) [I-1346, PL3-Asp-Npg-B5-Asp-Asp-Ala-Ala-Phe-Asn-PyrS2-dPhe-BztA-Gln-NH2] the “Solubility” value was 50 µM (≈ 95.6 µg/mL).
With `CCN(CC)C(=O)[C@H](CCC(N)=O)NC(=O)[C@H](Cc1csc2ccccc12)NC(=O)[C@H](Cc1ccsc1)NC(=O)[C@]12CCN(C1)C(=O)OCCCC=CCCCC1(CCCC=CC[C@]3(CCCN3C(C)=O)C(=O)N[C@@H](CC(=O)O)C(=O)N[C@@H](CC(C)(C)C)C(=O)N1)C(=O)N[C@@H](CC(=O)O)C(=O)N[C@@H](CC(=O)O)C(=O)N[C@@H](C)C(=O)N[C@@H](C)C(=O)N[C@@H](Cc1ccccc1)C(=O)N[C@@H](CC(N)=O)C(=O)N2` (stereo partly drawn) [I-1373, PL3-Asp-Npg-B5-Asp-Asp-Ala-Ala-Phe-Asn-PyrS2-3Thi-BztA-Gln-NEt2] the “Solubility” value was 50 µM (≈ 98.7 µg/mL).
For `CC(=O)N1CCC[C@]12CC=CCCCC1(CCCC=CCCCOC(=O)N3CC[C@@](C(=O)N[C@@H](Cc4ccsc4)C(=O)N[C@@H](Cc4csc5ccccc45)C(=O)N[C@@H](CCC(N)=O)C(=O)NC4CCCCC4)(C3)NC(=O)[C@H](CC(N)=O)NC(=O)[C@H](Cc3ccccc3)NC(=O)[C@H](C)NC(=O)[C@H](C)NC(=O)[C@H](CC(=O)O)NC(=O)[C@H](CC(=O)O)NC1=O)NC(=O)[C@H](CC(C)(C)C)NC(=O)[C@H](CC(=O)O)NC2=O` (stereo partly drawn) [I-1374, PL3-Asp-Npg-B5-Asp-Asp-Ala-Ala-Phe-Asn-PyrS2-3Thi-BztA-Gln-NHCyHe], the “Solubility” value was 10 µM (≈ 20 µg/mL).
For `CC(=O)N1CCC[C@]12CC=CCCCC1(CCCC=CCCCOC(=O)N3CC[C@@](C(=O)N[C@@H](Cc4ccsc4)C(=O)N[C@@H](Cc4csc5ccccc45)C(=O)N[C@@H](CCC(N)=O)C(=O)NC4CC4)(C3)NC(=O)[C@H](CC(N)=O)NC(=O)[C@H](Cc3ccccc3)NC(=O)[C@H](C)NC(=O)[C@H](C)NC(=O)[C@H](CC(=O)O)NC(=O)[C@H](CC(=O)O)NC1=O)NC(=O)[C@H](CC(C)(C)C)NC(=O)[C@H](CC(=O)O)NC2=O` (stereo partly drawn) [I-1375, PL3-Asp-Npg-B5-Asp-Asp-Ala-Ala-Phe-Asn-PyrS2-3Thi-BztA-Gln-NHCyPr], the “Solubility” value was 50 µM (≈ 97.9 µg/mL).
For `CC(=O)N1CCC[C@]12CC=CCCCC1(CCCC=CCCCOC(=O)N3CC[C@@](C(=O)N[C@@H](Cc4ccccc4)C(=O)N[C@@H](Cc4csc5ccccc45)C(=O)N[C@@H](CCC(N)=O)C(N)=O)(C3)NC(=O)[C@H](CC(C)C)NC(=O)[C@H](Cc3ccccc3)NC(=O)[C@H](C)NC(=O)[C@H](CCCCNC(C)C)NC(=O)[C@H](CCCCN)NC(=O)[C@H](CC(N)=O)NC1=O)NC(=O)[C@H](C)NC(=O)[C@H](CC(=O)O)NC2=O` (stereo partly drawn) [I-1380, Ac-PL3-Asp-Ala-B5-Asn-Lys-iPrLys-Ala-Phe-Leu-PyrS2-Phe-BztA-Gln-NH2], the “Solubility” value was 10 µM (≈ 19.7 µg/mL).

Same assay, conditions: Solubility (uM)
Compound `CC(=O)N1CCC[C@]12CC=CCCCC1(CCCC=CCCCOC(=O)N3CC[C@@](C(=O)N[C@@H](Cc4cccs4)C(=O)N[C@@H](Cc4csc5ccccc45)C(=O)N[C@@H](CCC(N)=O)C(N)=O)(C3)NC(=O)[C@H](CC(C)C)NC(=O)[C@H](Cc3ccccc3)NC(=O)[C@H](C)NC(=O)[C@H](C)NC(=O)[C@H](CC(=O)O)NC(=O)[C@H](CC(=O)O)NC1=O)NC(=O)[C@H](CC(C)(C)C)NC(=O)[C@H](CC(=O)O)NC2=O` (stereo partly drawn) [I-1344, PL3-Asp-Npg-B5-Asp-Asp-Ala-Ala-Phe-Leu-PyrS2-2Thi-BztA-Gln-NH2] has a solubility at 15 min of 44 µM (≈ 84.4 µg/mL).
Work on `CC(=O)N1CCC[C@]12CC=CCCCC1(CCCC=CCCCOC(=O)N3CC[C@@](C(=O)N[C@@H](Cc4cccs4)C(=O)N[C@@H](Cc4csc5ccccc45)C(=O)N[C@@H](CCC(N)=O)C(N)=O)(C3)NC(=O)[C@H](Cc3ccccc3)NC(=O)[C@H](Cc3ccccc3)NC(=O)[C@H](C)NC(=O)[C@H](C)NC(=O)[C@H](CC(=O)O)NC(=O)[C@H](CC(=O)O)NC1=O)NC(=O)[C@H](CC(C)(C)C)NC(=O)[C@H](CC(=O)O)NC2=O` (stereo partly drawn) [I-1345, PL3-Asp-Npg-B5-Asp-Asp-Ala-Ala-Phe-Phe-PyrS2-2Thi-BztA-Gln-NH2] yielded a solubility at 15 min of 37 µM (≈ 72.2 µg/mL).
For `CC(=O)N1CCC[C@]12CC=CCCCC1(CCCC=CCCCOC(=O)N3CC[C@@](C(=O)N[C@@H](CCc4ccccc4)C(=O)N[C@@H](Cc4csc5ccccc45)C(=O)N[C@@H](CCC(N)=O)C(N)=O)(C3)NC(=O)[C@H](CC(C)C)NC(=O)[C@H](Cc3ccccc3)NC(=O)[C@H](C)NC(=O)[C@H](C)NC(=O)[C@H](CC(=O)O)NC(=O)[C@H](CC(=O)O)NC1=O)NC(=O)[C@H](CC(C)(C)C)NC(=O)[C@H](CC(=O)O)NC2=O` (stereo partly drawn) [I-1350, PL3-Asp-Npg-B5-Asp-Asp-Ala-Ala-Phe-Leu-PyrS2-hPhe-BztA-Gln-NH2], the solubility at 15 min was 28 µM (≈ 53.9 µg/mL).
`CC(=O)N1CCC[C@]12CC=CCCCC1(CCCC=CCCCOC(=O)N3CC[C@@](C(=O)N[C@@H](CCc4ccccc4)C(=O)N[C@@H](Cc4csc5ccccc45)C(=O)N[C@@H](CCC(N)=O)C(N)=O)(C3)NC(=O)[C@H](Cc3ccccc3)NC(=O)[C@H](Cc3ccccc3)NC(=O)[C@H](C)NC(=O)[C@H](C)NC(=O)[C@H](CC(=O)O)NC(=O)[C@H](CC(=O)O)NC1=O)NC(=O)[C@H](CC(C)(C)C)NC(=O)[C@H](CC(=O)O)NC2=O` (stereo partly drawn) [I-1351, PL3-Asp-Npg-B5-Asp-Asp-Ala-Ala-Phe-Phe-PyrS2-hPhe-BztA-Gln-NH2] showed a solubility at 15 min of 14 µM (≈ 27.4 µg/mL).
`CC(=O)N1CCC[C@]12CC=CCCCC1(CCCC=CCCCOC(=O)N3CC[C@@](C(=O)N[C@@H](CC4CCCC4)C(=O)N[C@@H](Cc4csc5ccccc45)C(=O)N[C@@H](CCC(N)=O)C(N)=O)(C3)NC(=O)[C@H](CC(C)C)NC(=O)[C@H](Cc3ccccc3)NC(=O)[C@H](C)NC(=O)[C@H](C)NC(=O)[C@H](CC(=O)O)NC(=O)[C@H](CC(=O)O)NC1=O)NC(=O)[C@H](CC(C)(C)C)NC(=O)[C@H](CC(=O)O)NC2=O` (stereo partly drawn) [I-1353, PL3-Asp-Npg-B5-Asp-Asp-Ala-Ala-Phe-Leu-PyrS2-CypA-BztA-Gln-NH2] showed a solubility at 15 min of 44 µM (≈ 83.7 µg/mL).
`COCCC(=O)N1CCC[C@]12CC=CCCCC1(CCCC=CCCCOC(=O)N3CC[C@@](C(=O)N[C@@H](Cc4ccccc4)C(=O)N[C@@H](Cc4csc5ccccc45)C(=O)N[C@@H](CO)C(N)=O)(C3)NC(=O)[C@H](CO)NC(=O)[C@H](Cc3ccccc3)NC(=O)[C@H](C)NC(=O)[C@H](C)NC(=O)[C@H](CC(=O)O)NC(=O)[C@H](CC(=O)O)NC1=O)NC(=O)[C@H](CC(C)(C)C)NC(=O)[C@H](CC(=O)O)NC2=O` (stereo partly drawn) [I-1357, PL3-Asp-Npg-B5-Asp-Asp-Ala-Ala-Phe-Ser-PyrS2-Phe-BztA-Ser-NH2] gave a solubility at 15 min of 48 µM (≈ 90.6 µg/mL).
